According to ChEMBL document CHEMBL3407491, “Synthesis, characterization and in vitro photodynamic antimicrobial activity of basic amino acid-porphyrin conjugates” (Eur J Med Chem, 2015):
Values after ≈ are worked out from the molar mass of the structure shown. Active and inactive are the calls of the source. The calls are words filed in the database; no cut-off is given here.

Assays:
[1] = Photostability at 2 x 10^-5 mol/L exposed to 4.2 mW/cm2 light energy density assessed as change in absorption spectra after 30 mins post irradiation; format: physicochemical; conditions: 0.5 h, 20 µM
[2] = system: Staphylococcus aureus; assay: Antibacterial activity against methicillin-resistant Staphylococcus aureus incubated in dark for 30 mins followed by exposure to light fluences at 650 nm and 6 J/cm2 and then incubated overnight measured after 24 hrs; format: functional; conditions: light or radiation study
[3] = system: Staphylococcus aureus; assay: Bactericidal activity against methicillin-resistant Staphylococcus aureus incubated in dark for 30 mins followed by exposure to light fluences at 650 nm and 6 J/cm2 and then incubated overnight followed by further incubation on LB agar plates for another 24 hrs; format: functional; conditions: light or radiation study
[4] = system: Pseudomonas aeruginosa; assay: Antibacterial activity against Pseudomonas aeruginosa ATCC 27853 incubated in dark for 30 mins followed by exposure to light fluences at 650 nm and 6 J/cm2 and then incubated overnight measured after 24 hrs; format: functional; conditions: ATCC 27853, light or radiation study
[5] = system: Pseudomonas aeruginosa; assay: Bactericidal activity against Pseudomonas aeruginosa ATCC 27853 incubated in dark for 30 mins followed by exposure to light fluences at 650 nm and 6 J/cm2 and then incubated overnight followed by further incubation on LB agar plates for another 24 hrs; format: functional; conditions: ATCC 27853, light or radiation study
[6] = system: Escherichia coli; assay: Antibacterial activity against Escherichia coli ATCC 25922 incubated in dark for 30 mins followed by exposure to light fluences at 650 nm and 6 J/cm2 and then incubated overnight measured after 24 hrs; format: functional; conditions: ATCC 25922, light or radiation study
[7] = system: Escherichia coli; assay: Bactericidal activity against Escherichia coli ATCC 25922 incubated in dark for 30 mins followed by exposure to light fluences at 650 nm and 6 J/cm2 and then incubated overnight followed by further incubation on LB agar plates for another 24 hrs; format: functional; conditions: ATCC 25922, light or radiation study
[8] = system: Staphylococcus aureus; assay: Antibacterial activity against methicillin-resistant Staphylococcus aureus incubated in dark for 30 mins measured after 24 hrs; format: functional
[9] = system: Staphylococcus aureus; assay: Antibacterial activity against methicillin-resistant Staphylococcus aureus incubated in dark for 30 mins and grown for 24 hrs followed by further incubation on LB agar plates for another 24 hrs; format: functional
[10] = system: Pseudomonas aeruginosa; assay: Antibacterial activity against Pseudomonas aeruginosa ATCC 27853 incubated in dark for 30 mins measured after 24 hrs; format: functional
[11] = system: Pseudomonas aeruginosa; assay: Antibacterial activity against Pseudomonas aeruginosa ATCC 27853 incubated in dark for 30 mins and grown for 24 hrs followed by further incubation on LB agar plates for another 24 hrs; format: functional
[12] = system: Escherichia coli; assay: Antibacterial activity against Escherichia coli ATCC 25922 incubated in dark for 30 mins measured after 24 hrs; format: functional
[13] = system: Escherichia coli; assay: Antibacterial activity against Escherichia coli ATCC 25922 incubated in dark for 30 mins and grown for 24 hrs followed by further incubation on LB agar plates for another 24 hrs; format: functional
[14] = system: Escherichia coli; assay: Antibacterial activity against Escherichia coli ATCC 25922 at 3.91 uM to 62.50 uM incubated in dark for 30 mins followed by exposure to light fluences at 650 nm and 6 J/cm2 and then incubated overnight measured after 24 hrs; format: functional, organism-based
[15] = system: Pseudomonas aeruginosa; assay: Antibacterial activity against Pseudomonas aeruginosa ATCC 27853 at 3.91 uM to 62.50 uM incubated in dark for 30 mins followed by exposure to light fluences at 650 nm and 6 J/cm2 and then incubated overnight measured after 24 hrs; format: functional, organism-based
[16] = system: Staphylococcus aureus; assay: Antibacterial activity against methicillin-resistant Staphylococcus aureus at 0.49 uM to 7.8 uM incubated in dark for 30 mins followed by exposure to light fluences at 650 nm and 6 J/cm2 and then incubated overnight measured after 24 hrs; format: functional, organism-based
[17] = system: Escherichia coli; assay: Antibacterial activity against Escherichia coli ATCC 25922 at 0.49 uM to 7.8 uM incubated in dark for 30 mins followed by exposure to light fluences at 650 nm and 6 J/cm2 and then incubated overnight measured after 24 hrs; format: functional, organism-based
[18] = system: Pseudomonas aeruginosa; assay: Antibacterial activity against Pseudomonas aeruginosa ATCC 27853 at 0.49 uM to 7.8 uM incubated in dark for 30 mins followed by exposure to light fluences at 650 nm and 6 J/cm2 and then incubated overnight measured after 24 hrs; format: functional, organism-based
[19] = Singlet oxygen generation of the compound exposed to 4.2 mW/cm2 light energy density assessed as singlet oxygen quantum yield measured at 410 nm in 10 seconds intervals of irradiation at 0.2 uM by DPBF scavenger based assay
[20] = Octanol water partition coefficient, log P of the compound by reverse-phase thin-layer chromatography; format: physicochemical

Compound | Activity [1] [%] | MIC [2] [µM] | MBC [3] [µM] | MIC [4] [µM] | MBC [5] [µM] | MIC [6] [µM] | MBC [7] [µM] | MIC [8] [µM] | MBC [9] [µM] | MIC [10] [µM] | MBC [11] [µM] | MIC [12] [µM] | MBC [13] [µM] | Activity [14] | Activity [15] | Activity [16] | Activity [17] | Activity [18] | Activity [19] | logP [20]
Nc1ccc(-c2c3nc(c(-c4ccccc4)c4ccc([nH]4)c(-c4ccc(N)cc4)c4nc(c(-c5ccccc5)c5ccc2[nH]5)C=C4)C=C3)cc1 | < 20 | 62.5 (≈ 40.3 µg/mL) | 125 (≈ 80.6 µg/mL) | 125 (≈ 80.6 µg/mL) | 250 (≈ 161 µg/mL) | 125 (≈ 80.6 µg/mL) | 500 (≈ 322 µg/mL) | 62.5 (≈ 40.3 µg/mL) | 125 (≈ 80.6 µg/mL) | 125 (≈ 80.6 µg/mL) | 250 (≈ 161 µg/mL) | > 500 | > 500 | inactive | inactive | inactive | inactive | inactive |  | 
NCCCC[C@H](N)C(=O)Nc1ccc(-c2c3nc(c(-c4ccc(N)cc4)c4ccc([nH]4)c(-c4ccc(N)cc4)c4nc(c(-c5ccc(N)cc5)c5ccc2[nH]5)C=C4)C=C3)cc1 | < 20 | 250 (≈ 201 µg/mL) | 500 (≈ 401 µg/mL) | 500 (≈ 401 µg/mL) | > 500 | 250 (≈ 201 µg/mL) | 500 (≈ 401 µg/mL) | 250 (≈ 201 µg/mL) | > 500 | 250 (≈ 201 µg/mL) | > 500 | 250 (≈ 201 µg/mL) | 500 (≈ 401 µg/mL) |  |  |  |  |  | 0.17 | 1.4
Nc1ccc(-c2c3nc(c(-c4ccc(N)cc4)c4ccc([nH]4)c(-c4ccc(NC(=O)[C@@H](N)Cc5c[nH]cn5)cc4)c4nc(c(-c5ccc(N)cc5)c5ccc2[nH]5)C=C4)C=C3)cc1 | < 20 | 62.5 (≈ 50.7 µg/mL) | 250 (≈ 203 µg/mL) | 62.5 (≈ 50.7 µg/mL) | 250 (≈ 203 µg/mL) | 62.5 (≈ 50.7 µg/mL) | 250 (≈ 203 µg/mL) | 62.5 (≈ 50.7 µg/mL) | 250 (≈ 203 µg/mL) | 62.5 (≈ 50.7 µg/mL) | 250 (≈ 203 µg/mL) | 62.5 (≈ 50.7 µg/mL) | 250 (≈ 203 µg/mL) | inactive | inactive | inactive | inactive | inactive | 0.2 | 1.53
NCCCC[C@H](N)C(=O)Nc1ccc(-c2c3nc(c(-c4ccccc4)c4ccc([nH]4)c(-c4ccc(N)cc4)c4nc(c(-c5ccccc5)c5ccc2[nH]5)C=C4)C=C3)cc1 | < 20 | 62.5 (≈ 48.3 µg/mL) | 250 (≈ 193 µg/mL) | 62.5 (≈ 48.3 µg/mL) | 125 (≈ 96.6 µg/mL) | 62.5 (≈ 48.3 µg/mL) | 125 (≈ 96.6 µg/mL) | 125 (≈ 96.6 µg/mL) | 250 (≈ 193 µg/mL) | 125 (≈ 96.6 µg/mL) | 250 (≈ 193 µg/mL) | 62.5 (≈ 48.3 µg/mL) | 125 (≈ 96.6 µg/mL) |  |  |  |  |  | 0.27 | 1.46
N[C@@H](Cc1c[nH]cn1)C(=O)Nc1ccc(-c2c3nc(c(-c4ccccc4)c4ccc([nH]4)c(-c4ccccc4)c4nc(c(-c5ccccc5)c5ccc2[nH]5)C=C4)C=C3)cc1 | < 20 | 125 (≈ 95.9 µg/mL) | 250 (≈ 192 µg/mL) | 62.5 (≈ 47.9 µg/mL) | 125 (≈ 95.9 µg/mL) | 62.5 (≈ 47.9 µg/mL) | 125 (≈ 95.9 µg/mL) | 125 (≈ 95.9 µg/mL) | 500 (≈ 383 µg/mL) | 125 (≈ 95.9 µg/mL) | 250 (≈ 192 µg/mL) | 125 (≈ 95.9 µg/mL) | 250 (≈ 192 µg/mL) | inactive | inactive | inactive | inactive | inactive | 0.56 | 1.6
C1=Cc2nc1c(-c1ccccc1)c1ccc([nH]1)c(-c1ccccc1)c1nc(c(-c3ccccc3)c3ccc([nH]3)c2-c2ccccc2)C=C1 |  |  |  |  |  |  |  |  |  |  |  |  |  |  |  |  |  |  | 0.64 | 
